Measured values as given in patent US6825348B2, “Antiviral compounds” (Academia Sinica, priority 2002, dated 2004).
Converted amounts (≈) assume the structure as drawn. Where two headings read alike, the source gives them in different places.

Legend:
[1] = target: T1, calf mucosal adenosine deaminase (ADA, EC 3.5.4.4) (Bos taurus, UniProt P56658); assay: Substrate activity and competitive inhibition of adenosine deaminase; assay type: biochemical; conditions: for type of ADA inhibition in words: ara-A used as substrate; for rel. Vmax: compound as ADA substrate, relative to ara A 3 = 1.0; for Ki: inhibition of ADA with ara-A 3 as substrate
T1 sequence (P56658 1-363): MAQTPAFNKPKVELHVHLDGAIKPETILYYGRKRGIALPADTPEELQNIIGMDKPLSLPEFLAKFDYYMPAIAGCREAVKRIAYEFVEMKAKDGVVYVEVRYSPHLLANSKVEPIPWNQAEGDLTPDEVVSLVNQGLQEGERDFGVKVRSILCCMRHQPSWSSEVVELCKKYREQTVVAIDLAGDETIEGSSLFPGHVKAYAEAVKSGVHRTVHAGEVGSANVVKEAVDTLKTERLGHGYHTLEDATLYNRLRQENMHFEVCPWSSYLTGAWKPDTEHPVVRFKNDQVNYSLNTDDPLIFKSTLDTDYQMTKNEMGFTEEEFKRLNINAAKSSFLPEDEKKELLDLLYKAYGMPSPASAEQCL

[2] = tested on: thymidine kinase-positive (TK+) varicella-zoster virus (YS); assay: Inhibition of TK+ VZV cytopathogenicity in Vero cell culture; assay type: cell-based
HSV thymidine kinase = HSV thymidine kinase (Human herpesvirus 1, UniProt P0DTH5); assay: Phosphorylation of nucleosides by HSV thymidine kinase; assay type: biochemical
[3] = Solubility in water (phosphate buffer, UV absorbance); conditions: phosphate buffer, pH 6.8, aqueous buffer, thermodynamic from solid
[4] = tested on: Vero cell thymidine kinase; assay: Phosphorylation of nucleosides by Vero cell thymidine kinase; assay type: biochemical; conditions: for Km: apparent Km, 37° C., pH 7.5; for rel. Vmax, Vero cell thymidine kinase: relative to thymidine = 1.0 × 10^2
[5] = tested on: human cytomegalovirus (AD-169); assay: Inhibition of HCMV cytopathogenicity in Vero cell culture; assay type: cell-based; conditions: Human betaherpesvirus 5, AD169; Vero cell culture; 50% inhibition of cytopathogenicity; for 1:1 mixtures IC50 refers to known antiviral drugs; read-out: IC50 HCMV (AD-169)
Vero cells = conditions: African green monkey
[6] = Lipophilicity, 1-octanol/water partition coefficient; conditions: 1-octanol/water (0.10 M phosphate buffer)
[7] = tested on: herpes simplex type 1 virus (HSV-1) (KOS); assay: Inhibition of HSV-1 cytopathogenicity in Vero cell culture; assay type: cell-based; conditions: Human alphaherpesvirus 1, Vero, read-out: IC50 HSV-1 (KOS)
[8] = tested on: thymidine kinase-deficient (TK−) varicella-zoster virus (YS/R); assay: microbe, parasite or virus in culture; assay type: cell-based; conditions: Human alphaherpesvirus 3, Vero, read-out: IC50 TK−VZV (YS/R)
HeLa cells = conditions: human
HSV-1 (KOS) = assay: Anti-HSV-1 activity in vivo, HSV-1-induced mortality in NMRI mice; conditions: 6 days; for mean day of animal death / mean day of symptom initiation: terminated day 21; for responders at 100 mg/kg / responders at 150 mg/kg / responders at 250 mg/kg: Human alphaherpesvirus 1, ip, 504 h; for protection against HSV-induced mortality: 150 mg/kg dose level i.p.
[9] = LD50 and toxicity in mice, intraperitoneal
CEM cells = assay: Toxicity toward CEM cells
HIV-1 (IIIB) = assay: microbe, parasite or virus in culture; assay type: cell-based; conditions: Human immunodeficiency virus 1, IIIB; MT4 cells, average of duplicates; read-out: IC50 HIV-1 (IIIB)
MT4 cells = assay: Toxicity toward MT4 cells
HIV-2 (LAV-2) = assay: Inhibition of HIV-2 cytopathogenicity in MT4 cells; assay type: cell-based, human immunodeficiency virus; conditions: Human immunodeficiency virus 2; MT4 cells, average of duplicates; read-out: IC50 HIV-2 (LAV-2)
[10] = tested on: moloney murine sarcoma virus (MSV); assay: Inhibition of MSV cytopathogenicity in CEM cells (cell-protection assay); assay type: cell-based; conditions: Moloney murine sarcoma virus, CCRF-CEM; CEM cells, average of duplicates; read-out: IC50 MSV
[11] = mixture with acyclovir 2 (w/w=1:1)
[12] = 100 mg/kg/day i.p., read-out: percentage of HSV-1-infected mice alive at day 21 postinfection
[13] = 100 mg/kg/day i.p., read-out: percentage of HSV-1-infected mice without symptoms at day 21 postinfection
[14] = 150 mg/kg/day i.p., read-out: percentage of HSV-1-infected mice alive at day 21 postinfection
[15] = 150 mg/kg/day i.p., read-out: percentage of HSV-1-infected mice without symptoms at day 21 postinfection
[16] = 250 mg/kg/day i.p., read-out: percentage of HSV-1-infected mice alive at day 21 postinfection
[17] = 250 mg/kg/day i.p., read-out: percentage of HSV-1-infected mice without symptoms at day 21 postinfection

Sequence of HSV thymidine kinase (P0DTH5 whole entry, looked up): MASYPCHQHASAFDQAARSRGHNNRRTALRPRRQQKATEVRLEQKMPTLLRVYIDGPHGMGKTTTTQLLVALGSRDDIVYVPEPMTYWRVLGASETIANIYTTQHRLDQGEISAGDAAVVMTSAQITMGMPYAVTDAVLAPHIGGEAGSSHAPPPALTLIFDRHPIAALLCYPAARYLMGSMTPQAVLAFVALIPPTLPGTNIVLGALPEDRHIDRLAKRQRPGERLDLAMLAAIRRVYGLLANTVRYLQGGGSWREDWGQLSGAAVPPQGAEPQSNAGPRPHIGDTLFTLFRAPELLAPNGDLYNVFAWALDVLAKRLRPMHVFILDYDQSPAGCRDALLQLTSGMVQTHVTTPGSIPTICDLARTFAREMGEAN

| SMILES | IC50 TK+VZV (YS) [2] [µg/mL] | rel. Vmax, HSV thymidine kinase (HSV thymidine kinase) | solubility at 20 h [3] [µg/mL] | Km [4] [mM] | rel. Vmax, Vero cell thymidine kinase [4] | IC50 [5] [µg/mL] | Vero cell, concentration causing microscopically visible change or disruption in about 50% of the cell sheet (Vero cells) [µg/mL] | logP at […] [6] | IC50 [7] [µg/mL] | IC50 [8] [µg/mL] | HeLa cell, concentration causing microscopically visible change or disruption in about 50% of the cell sheet (HeLa cells) [µg/mL] | mean day of animal death (HSV-1 (KOS); 100 mg/kg/day i.p.) [days] | mean day of symptom initiation (HSV-1 (KOS); 100 mg/kg/day i.p.) [days] | mean day of animal death (HSV-1 (KOS); 150 mg/kg/day i.p.) [days] | mean day of symptom initiation (HSV-1 (KOS); 150 mg/kg/day i.p.) [days] | mean day of animal death (HSV-1 (KOS); 250 mg/kg/day i.p.) [days] | mean day of symptom initiation (HSV-1 (KOS); 250 mg/kg/day i.p.) [days] | responders at 100 mg/kg (HSV-1 (KOS); [12]) [%] | responders at 100 mg/kg (HSV-1 (KOS); [13]) [%] | responders at 150 mg/kg (HSV-1 (KOS); [14]) [%] | other results |
| --- | --- | --- | --- | --- | --- | --- | --- | --- | --- | --- | --- | --- | --- | --- | --- | --- | --- | --- | --- | --- | --- |
| Nc1ncnc2c1ncn2COCCO [Compound 1, 9-[(2-Hydroxyethoxy)methyl]adenine, reference compound] | 7.0 (≈ 33.5 µM) | <3.0 | 2560 (≈ 12200 µM) | > 30 | <3.0 | 4.8 (≈ 22.9 µM) | 209 | 0.98 | 4.5 (≈ 21.5 µM) | 9 (≈ 43 µM) | 196 |  |  |  |  |  |  |  |  |  | ADA substrate / inhibitor property in words [1]: functioned as ADA substrates; type of ADA inhibition in words [1]: competitive inhibition; rel. Vmax [1]: 1.48 × 10^−2; Ki [1]: 141 µM; effect on the rate of phosphorylation of acyclovir 2 in words (HSV thymidine kinase; [11]): did not induce any increase |
| Nc1nc2ncn(COCCO)c2c(=O)[nH]1 [Compound 9, 7-[(2-Hydroxyethoxy)methyl]guanine] | 13 (≈ 57.7 µM) | 28.0 | 320 (≈ 1420 µM) | 0.0183 | 12.0 | 16 (≈ 71 µM) | 99 | -0.6 | 1.1 (≈ 4.88 µM) | 38 (≈ 169 µM) | 114 | 14.1 ± 0.8 | 10.9 ± 0.6 | 16.0 ± 1.5 | 13.0 ± 1.1 | 18.5 ± 1.0 | 15.1 ± 1.2 | 66 | 48 | 78 | responders at 150 mg/kg (HSV-1 (KOS); [15]): 57%; responders at 250 mg/kg (HSV-1 (KOS); [16]): 90%; responders at 250 mg/kg (HSV-1 (KOS); [17]): 67% |
| Nc1ncnc2ncn(COCCO)c12 [Compound 14, 7-[(2-Hydroxyethoxy)methyl]adenine] | 1.1 (≈ 5.26 µM) | <3.0 | 4710 (≈ 22500 µM) | > 30 | <3.0 | 1 (≈ 4.78 µM) | 496 | 1.24 | 0.58 (≈ 2.77 µM) | 0.97 (≈ 4.64 µM) | 472 | 19.8 ± 1.7 | 17.5 ± 2.1 | >21 | 19.9 ± 1.3 | >21 | >21 | 95 | 80 | 100 | ADA substrate / inhibitor property in words [1]: functioned as ADA substrates; type of ADA inhibition in words [1]: competitive inhibition; rel. Vmax [1]: 1.50 × 10^−6; Ki [1]: 8.3 µM; protection against HSV-induced mortality (HSV-1 (KOS)): full protection; responders at 150 mg/kg (HSV-1 (KOS); [15]): 88%; responders at 250 mg/kg (HSV-1 (KOS); [16]): 100%; responders at 250 mg/kg (HSV-1 (KOS); [17]): 100%; increase on the rate of phosphorylation of acyclovir 2 by HSV thymidine kinase (HSV thymidine kinase; [11]): 2 fold; LD50 ([9]; NMRI, mouse, in vivo, ip): 950 mg/kg; level up to which no toxicity was shown ([9]; mice, intraperitoneal): 400 mg/kg |
| Nc1nc2c(ncn2CCOCP(=O)(O)O)c(=O)[nH]1 [PMEG 27, 9-[2-(phosphonomethoxy)ethyl]guanine, reference compound] | 0.040 (≈ 0.138 µM) |  | 360 (≈ 1240 µM) |  |  | 0.35 (≈ 1.21 µM) | 7.0 | 0.14 | 4.6 (≈ 15.9 µM) | 0.06 (≈ 0.207 µM) | 9.1 |  |  |  |  |  |  |  |  |  | CEM cell, concentration reducing the number of viable uninfected cells by 50% (CEM cells): 12 µg/mL; IC50 (HIV-1 (IIIB)): 16 µg/mL (≈ 55.3 µM); MT4 cell, concentration reducing the number of viable uninfected cells by 50% (MT4 cells): 16 µg/mL; IC50 (HIV-2 (LAV-2)): 18 µg/mL (≈ 62.2 µM); IC50 [10]: 0.19 µg/mL (≈ 0.657 µM) |
| Nc1nc2c(ncn2COCCO)c(=O)[nH]1 [acyclovir 2, 9-[(2-hydroxyethoxy)methyl]guanine, reference compound] |  | 39.2 | 400 (≈ 1780 µM) | 22 | <3.0 | 32 (≈ 142 µM) | 269 | -0.48 | 0.46 (≈ 2.04 µM) |  | 259 | 18.9 ± 2.1 | 15.6 ± 1.6 | >21 | 19.1 ± 1.3 | >21 | >21 | 80 | 65 | 100 | protection against HSV-induced mortality (HSV-1 (KOS)): full protection; responders at 150 mg/kg (HSV-1 (KOS); [15]): 86%; responders at 250 mg/kg (HSV-1 (KOS); [16]): 100%; responders at 250 mg/kg (HSV-1 (KOS); [17]): 100% |
| Cc1cn([C@H]2C[C@H](O)[C@@H](CO)O2)c(=O)[nH]c1=O [thymidine] |  |  |  | 0.001 | 1.0 × 10^2 |  |  |  |  |  |  |  |  |  |  |  |  |  |  |  |  |
